From patent US12337005B2, “Methods of treating thrombosis” (UNIVERSITY OF IOWA RESEARCH FOUNDATION, priority 2020, dated 2025)

Key:
[1] = tested on: PI3 kinase-mediated Akt/GSK3β signaling; experiment: Western blot of Akt/GSK3β phosphorylation, mouse platelets; type: cell-based; conditions: murine platelets, convulxin or thrombin mediated, ML265 50 and 100 μM
Procedure: (§1) Platelet proteins were separated on 4-20% SDS-PAGE (sodium dodecyl sulfate-polyacrylamide gel electrophoresis) gradient gels and electrophoretic transferred to PVDF (polyvinylidene fluoride) membrane by using Bio-Rad western blotting system. For PKM2 dimer and tetramer study 6% native gels are used. Membranes were blocked with 5% BSA or skimmed milk in 10 mM Tris-HCl, 150 mM NaCl, pH 8.0 (TBS) containing 0.05% Tween-20 for one hour at room temperature. Blots were incubated for overnight with primary antibody, followed by horseradish peroxidase-labeled secondary antibody for one hour. Blots were developed using enhanced chemiluminescence and quantified using Image J software from NIH (Bethesda, MD, USA).

human platelets = experiment: In vitro platelet aggregation, human platelet-rich plasma; type: cell-based; conditions: convulxin, collagen, TRAP and ADP, ML265 50 and 100 μM
Procedure: (§2) Platelet rich plasma (PRP) or washed platelets (2×10^8/ml) treated with vehicle (DMSO) or ML265 (50 and 100 μM) were stirred (1200 rpm) at 37° C. for 2 min in a whole blood/optical lumi-aggregometer (Chrono-log; model 700-2) before the addition of agonists (convulxin, collagen, thrombin, PAR4, TRAP (PAR1 agonist) or adenosine diphosphate [ADP]). Aggregation was measured as percent change in light transmission, where 100% refers to transmittance through the blank sample (PRP/Buffer). Platelet dense granule secretion was determined by measuring the release of ATP using luciferin-luciferase reagent. To examine the effect of ML265 on ATP secretion, washed platelets were pretreated with vehicle (DMSO) or ML265 (50 and 100 μM) for 10 minutes before stimulation with various agonists. ATP release was performed in a lumi-aggregometer (Chrono-log; model 700-2) at 37° C.

[2] = tested on: PI3 kinase-mediated Akt/GSK3β signaling; experiment: Western blot of Akt/GSK3β phosphorylation, human platelets; type: cell-based; conditions: convulxin- or thrombin-mediated, ML265 50 and 100 μM
Procedure: as §1

[3] = tested on: male wild-type mice on C57B16/J background; experiment: FeCl3 injury-induced carotid artery thrombosis; type: in vivo, mouse
Procedure: Initially ML265 dissolved in DMSO was mixed with 200 μl of deionized water and administered intra-peritoneally to the at a dose of 25 and 50-mg/Kg body weight. In vivo thrombosis and tail transection assays were performed 10 minutes after administration of ML265 or vehicle infusion by a person who was blinded to the drug and vehicle infusion.
Thrombus formation in the carotid artery after the FeCl3 injury was assessed by intravital microscopy. Briefly, 8-10 weeks old mice were anesthetized using 100-mg/kg ketamine and 10-mg/kg xylazine. Platelets labeled with calcein green (2.5×10^9 platelets per kg) were infused through the retro-orbital plexus. The common carotid artery was carefully exposed and kept moist by super-fusion with warm (˜37° C.) saline. Whatman paper (0.5×1.5 mm) saturated with ferric chloride (5%) solution was applied topically for 1.5 minutes for male and 2 mins for female mice, and thrombus formation in the injured carotid vessel was monitored in real time using a Nikon upright microscope (Plan Fluor 4×/0.2 objective), and thrombus growth overtime was recorded using a high-speed electron-multiplying camera for 40 minutes or until occlusion occurred. The time to form occlusive thrombus was considered as the time required for blood to stop flowing completely for >1 minute. Videos were evaluated off-line using a Nikon computer-assisted image analysis program.

[4] = tested on: platelets from obese mice; experiment: Platelet aggregation, platelets from obese mice; type: cell-based, mouse; conditions: collagen (1 μg/mL) and thrombin (0.02 U/mL)
Text: FIGS. 16A-16D. ML265 inhibits platelet aggregation and arterial thrombosis in pre-existing comorbid condition of obesity. Wild-type (C57BL6/J) mice fed a chow and high-fat diet (Cat #TD.06414, Envigo, 60% Kcal from fat) for 4 months. (A) Blood glucose levels (B) Blood glucose levels during the insulin tolerance test. Statistics (A & B): Two-way ANOVA with Tukey's multiple comparisons test (*P<0.05, **P<0.01, ***P<0.001, ****P<0.0001; n=10 mice/group). (C) Platelet rich plasma or washed platelets from obese mice were pretreated with vehicle or ML265 and stimulated with agonists including collagen (1 μg/mL) and thrombin (0.02 U/mL). The results are represented as percent change light transmission after subtracting the blank (platelet poor plasma/Tyrode's buffer). […]
as §2, with “To examine the effect of ML265 on ATP secretion, washed platelets were pretreated with vehicle (DMSO) or ML265 (50 and 100 μM) for 10 minutes before stimulation with various agonists. ATP release was performed in a lumi-aggregometer (Chrono-log; model 700-2) at 37° C.” left out

mouse whole blood = experiment: Bioflux flow chamber assay, mouse whole blood on collagen; type: cell-based; conditions: ML265 150 μM
Procedure: In vitro thrombosis assays were performed using BioFlux™ 200 (Fluxion Biosciences, USA) microfluidics flow chamber (Nayak et al., 2018). The channels were coated with Type I collagen (100 μg/ml) for one hour at room temperature and then blocked with 0.5% BSA for 30 minutes. Platelets were isolated from citrated whole blood as described above, washed, labeled with the fluorescent dye (calcein AM; 2 μM) and were reconstituted back with PPP and remaining blood containing leukocytes and RBC. The whole blood pretreated with ML265 or vehicle (DMSO) was perfused over the collagen-coated plate at shear stress 1500 s^−1 for 5 minutes. Experiments were performed in triplicates using whole blood from human and mice. The fluorescently labeled platelets/thrombi on the collagen-coated surface were analyzed using ImageJ software from NIH (Bethesda, MD, USA).

PKM2 dimers = biological target: T1, PKM2 dimers (Homo sapiens, UniProt P14618); experiment: Native Western blot of PKM2 dimer and tetramer in stimulated human platelets; type: cell-based; conditions: human platelets stimulated with convulxin (100 ng/ml) or thrombin (0.1 U/mL); vs vehicle
T1 construct: decreased PKM2 dimers in the human platelets stimulated with convulxin or thrombin; endogenous in cells; host or cells: human platelets from healthy volunteers
Procedure: To obtain human platelets, blood was collected from healthy volunteers free from antiplatelet medication. Informed consent was taken. Platelets were prepared as described. Briefly, blood was collected in tubes containing anticoagulant citrate dextrose solution A and centrifuged at 180 g for 20 min. After addition of apyrase (0.6 U/ml) to PRP, platelets were sedimented by centrifugation at 800 g for 15 min. Cells were washed in buffer A (20 mM HEPES, 138 mM NaCl, 2.9 mM KCl, 1 mM MgCl2, 0.36 mM NaH2PO4, 1 mM EGTA (ethylene glycol tetraacetic acid), supplemented with 5 mM glucose, pH 6.2). Platelets were finally resuspended in buffer B (pH 7.4), which was the same as buffer ‘A’ but without EGTA and apyrase.
as §1, with “Blots were incubated for overnight with primary antibody, followed by horseradish peroxidase-labeled secondary antibody for one hour.” left out

T1 sequence (P14618 2-531 limits assumed): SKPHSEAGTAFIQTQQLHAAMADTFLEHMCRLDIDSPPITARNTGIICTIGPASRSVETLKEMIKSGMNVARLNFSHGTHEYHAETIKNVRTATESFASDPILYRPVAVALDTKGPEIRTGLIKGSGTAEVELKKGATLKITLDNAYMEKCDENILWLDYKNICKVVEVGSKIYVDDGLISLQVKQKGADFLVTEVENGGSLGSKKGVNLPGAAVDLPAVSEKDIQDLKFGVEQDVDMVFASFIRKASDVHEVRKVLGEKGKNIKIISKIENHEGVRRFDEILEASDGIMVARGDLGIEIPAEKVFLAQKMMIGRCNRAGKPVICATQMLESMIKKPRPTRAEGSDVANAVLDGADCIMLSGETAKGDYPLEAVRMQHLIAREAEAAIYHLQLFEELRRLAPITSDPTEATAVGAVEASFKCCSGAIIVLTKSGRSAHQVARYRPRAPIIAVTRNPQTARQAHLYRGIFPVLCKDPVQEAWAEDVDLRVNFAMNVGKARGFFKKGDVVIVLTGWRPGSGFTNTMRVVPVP

## Cn1c2cc([S+](C)[O-])sc2c2cnn(Cc3cccc(N)c3)c(=O)c21 (stereo not drawn) [ML265, 6-[(3-aminophenyl)methyl]-4,6-dihydro-4-methyl-2-(methylsulfinyl)-5H-thieno[2′,3′:4,5]pyrrolo[2,3-d]pyridazine-5-one]
[1]
  Akt phosphorylation: attenuated
  GSK3β phosphorylation: attenuated
Human platelets
  stimulus-dependent platelet aggregation: reduced
[2]
  Akt phosphorylation: down-regulated
  GSK3β phosphorylation: down-regulated
[3]; ML265-pretreated wild-type mice
  mice that did not occlude: 50%
[3]; control group approximately 20 mins
  time to occlusion, a large number of ML265 pre-treated mice (did not occlude): > 40 min
[3]; male mice pretreated with ML265, 5% FeCl3, vehicle slope 4.862
  rate of thrombus growth (slope over time): 1.531
[3]; male wild-type mice pretreated with ML265
  time to complete vessel occlusion vs vehicle: significantly prolonged
[3]; male wild-type mice, ML265 i.p. 10 minutes before 5% FeCl3 injury
  reduction in the extent of thrombus growth vs vehicle: ~4 fold
[4]
  platelet aggregation in pre-existing comorbid condition of obesity: inhibited
Mouse whole blood; collagen, 1500 s-1
  thrombus growth rate vs vehicle control: marked reduction
Mouse whole blood; collagen, 1500 s-1, 5 minutes
  percent of the area covered by platelets vs vehicle control: marked reduction
Mouse whole blood; vehicle slope 236.1
  rate of thrombus growth (slope over time): 61.65
PKM2 dimers
  PKM2 dimers: decreased
